This is an account of results in US20190030114A1, “ISOFORM-SPECIFIC CALPAIN INHIBITORS, METHODS OF IDENTIFICATION, AND USES THEREOF” (WESTERN UNIVERSITY OF HEALTH SCIENCES, priority 2014, published 2019).

For the test, the system named is retina (GCL, IPL). The test is described as follows: retinal damage induced by intravitreal NMDA injection, systemic (i.p.) inhibitor. It counts as in vivo, mice. As for the experimental part:
FIG. 8A: Representative images show H&E-stained ganglion cell and Plexiform layers of: i) naïve retina; ii) PBS-treated (intravitreally, 2 μI) or NMDA-treated (intravitreally, 2 μI of 2.5 mM) retina from wild-type mice that had been intraperitoneally injected with vehicle (20% DMSO), Formula I (C2l in the drawing, 0.3 mg/kg) or the pan-calpain inhibitor calpeptin (10 mg/kg) at 30 min before and 6 h after NMDA injection. H&E staining was done at 7 days after NMDA injection.
FIG. 8B: Quantitative analysis of cell number in the GCL of wild-type mice that had been injected intravitreally 7 days earlier with either 2 μI PBS or 2 μI NMDA (2.5 mM). The mice were intraperitoneally injected with vehicle (20% DMSO), a Formula I (C2l in the drawing, 0.3 mg/kg) or the pan-calpain inhibitor calpeptin (10 mg/kg) at 30 min before and 6 h after NMDA injection. Columns represent mean±S.E.M. n=4-6. *p<0.05; **p<0.01; ***p<0.001 versus NMDA plus vehicle-injected group. One-way ANOVA followed by Bonferroni test.
FIG. 8C: Quantitative analysis of thickness of the IPL of wild-type mice that had been injected intravitreally 7 days earlier with either 2 μI PBS or 2 μI NMDA (2.5 mM). The mice were intraperitoneally injected with vehicle (20% DMSO), Formula I (C2l in the drawing, 0.3 mg/kg) or the pan-calpain inhibitor calpeptin (10 mg/kg) at 30 min before and 6 h after NMDA injection.
FIG. 9A: Representative immunoblot of the levels of Spectrin breakdown products (SBDP), full-length PH domain and Leucine-rich repeat Protein Phosphatase 1 (PHLPP1)α and Akt in mouse retinal extracts 6 h after intravitreal injection of PBS (control) or NMDA (2 μI of 2.5 mM). Mice were injected i.p. with vehicle (10% DMSO) or C2l (0.3 mg/kg) 30 min before intravitreal injection.
FIG. 9B: Quantitation of ratios of SBDP/Akt, as determined in retinal extracts 6 h after NMDA or PBS injections. Data represent means±S.E.M. n=4. *p<0.05, ***p<0.001,. One-way ANOVA followed by Bonferroni test.
FIG. 9C: Quantitation of ratios of PHLPP1α/Akt, as determined in retinal extracts 6 h after NMDA or PBS injections. Data represent means±S.E.M. n=4. *p<0.05, ***p<0.001,. One-way ANOVA followed by Bonferroni test.
FIG. 9E: Quantitative analysis of cell number in the GCL from wild-type mice 7 days after NMDA-injection. Six sections cut through the optic disc from each eye were analyzed. Cell numbers in GCL at a distance between 500 and 1000 μm from the optic disc were counted. Cell densities from 6 sections from each eye were averaged.
FIG. 9F: Quantitative analysis of thickness of the IPL from wild-type mice 7 days after NMDA-injection. Six sections cut through the optic disc from each eye were analyzed. Cell numbers in GCL at a distance between 500 and 1000 μm from the optic disc were counted. Cell densities from 6 sections from each eye were averaged.
FIG. 9H: Quantitative analysis of cell number in the GCL from calpain-1 KO mice 7 days after NMDA-injection. Six sections cut through the optic disc from each eye were analyzed. Cell numbers in GCL at a distance between 500 and 1000 μm from the optic disc were counted. Cell densities from 6 sections from each eye were averaged. Data represent means±S.E.M. n=6. *p<0.05, **p<0.01, ***p<0.001, One-way ANOVA followed by Bonferroni test.
FIG. 9I: Quantitative analysis of thickness of the IPL of calpain-1 mice 7 days after NMDA-injection. Six sections cut through the optic disc from each eye were analyzed. Cell numbers in GCL at a distance between 500 and 1000 μm from the optic disc were counted. Cell densities from 6 sections from each eye were averaged. Data represent means±S.E.M. n=6. *p<0.05, **p<0.01, ***p<0.001, One-way ANOVA followed by Bonferroni test.
FIG. 9J: Comparison of GCL cell numbers in NMDA-treated WT and KO mice without and with C2l treatment. n=6. **p<0.01. Two-tailed t-test. […]

Setting [1] is: WT mice, i.p. 30 min before and 6 h after NMDA.
Setting [2] is: calpain-1 KO mice, systemic injection.
The mark [3] stands for this setting: i.p. 30 min before NMDA, 6 h after NMDA, WT mice.

On to `CCC(NC(=O)C(CC(C)C)NC(=O)OCc1ccccc1)C(=O)C(=O)NCc1cc(OC)cc(OC)c1` (racemic) [Formula 1, Z-Leu-Abu-CONH—CH2-C6H3 (3, 5-(OMe)2)], for which the NMDA-induced retinal damage entry (0.3 mg/kg i.p. 30 min before and 6 h after NMDA, wild-type mice) is reported as “protective against NMDA-induced retinal damage”. The “effect on GCL cell survival, KO versus WT mice” value (NMDA-treated) is given as “lower in KO mice than in WT mice”. For the same compound, under setting [1], the “NMDA-induced reduction in GCL cell density” value is “significantly suppressed the reduction” and the “NMDA-induced reduction in IPL thickness” value is “significantly suppressed the reduction”. Further, under setting [2], the “NMDA-induced decrease in GCL cell density” value is on record as “partially but significantly reversed” and the “NMDA-induced decrease in IPL thickness” value was “partially but significantly reversed”. For the same compound, under setting [3], the “NMDA-induced changes in PHLPP1 in retinal extracts” value is listed as “not” and the “NMDA-induced changes in SBDP in retinal extracts” value is given as “significantly suppressed”.
